Measurements: ChEMBL document CHEMBL4725384, “Monoaryl derivatives as transthyretin fibril formation inhibitors: Design, synthesis, biological evaluation and structural analysis” (Bioorg Med Chem, 2020)
Calls of active or inactive are those of the source. The calls are words filed in the database; no cut-off is given here.

Tests used:
[1] = biological target: Transthyretin (Homo sapiens) (UniProt P02766); assay: Stabilization of wild type human transthyretin expressed in Escherichia coli BL21(DE3) assessed as fibril formation at 7.2 uM preincubated for 30 mins with transthyretin followed by measuring after 72 hrs maintaining pH of 4.4 by UV-Visible spectrophotometer relative to control
[2] = biological target: Transthyretin (Homo sapiens) (UniProt P02766); assay: Stabilization of wild type human transthyretin expressed in Escherichia coli BL21(DE3) assessed as decrease in TTR-amyloid beta fibril formation at 10 uM preincubated for 6 hrs with transthyretin followed by measuring after 96 hrs maintaining pH of 4.4 by thioflavin T binding assay relative to control

| Structure (SMILES) | Activity [1] [%] | inhibition [2] |
| --- | --- | --- |
| O=C(O)CO/N=C/c1cccc(O)c1 | 100 |  |
| O=C(O)CCO/N=C/c1ccc(O)c(O)c1 | 34 |  |
| O=C(O[C@@H]1Cc2c(O)cc(O)cc2O[C@@H]1c1cc(O)c(O)c(O)c1)c1cc(O)c(O)c(O)c1 |  | 53% |
| O=C(O)CO/N=C/c1ccc(OCC(=O)O)cc1 | 80 | inactive |
| O=C(O)CCO/N=C/c1ccc(O)cc1O | 38 | 68% |
| O=C(O)CCO/N=C/c1ccc(O)cc1 | 17 | Active |
| O=C(O)CCO/N=C/c1cc(Br)cc(Br)c1O | 16 | Active |
| O=C(O)CO/N=C/c1cc(Br)cc(Br)c1OCC(=O)O | 86 | inactive |
| O=C(O)CO/N=C/c1ccccc1OCC(=O)O | 100 | inactive |
| O=C(O)CO/N=C/c1ccc(O)cc1 | 59 |  |
| O=C(O)c1cc(-c2ccc(F)cc2F)ccc1O | 9 |  |
| O=C(O)CO/N=C/c1ccccc1O | 100 |  |
| O=C(O)CCO/N=C/c1cccc(O)c1 | 42 | Active |
| O=C(O)CO/N=C/c1cc(Br)cc(Br)c1O | 35 |  |
| O=C(O)CO/N=C/c1cccc(OCC(=O)O)c1 | 100 | inactive |
| O=C(O)CCO/N=C/c1ccccc1O | 38 | Active |
| O=C(O)CCO/N=C/c1cc(O)cc(O)c1 | 39 |  |
